Data on one cell line can be found in the supplement of paper PMC10307832.

Holding throughout (assay): relative viability (nuclei count vs DMSO), 5 days (fraction); higher = more cells survive
Compound in assay [1]: C[C@]12O[C@H](C[C@]1(O)CO)n1c3ccccc3c3c4c(c5c6ccccc6n2c5c31)CNC4=O [Lestaurtinib] + C[C@]1(O)C[C@@H](c2nc(-c3ccc4ccc(-c5ccccc5)nc4c3)c3c(N)nccn32)C1 [Linsitinib] (partner 1 µM)
An outline of the steps:
(§1)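 For relative viability, nuclei counts in treated wells were divided by those in vehicle wells. Lung cancer cell lines had been pin-tool dosed in 1536-well plates the day after seeding and cultured for 5 days, then fixed and stained in one step (final 0.05% Triton X-100, 1% formaldehyde, 1 ug/ml Hoechst) and imaged at 4×. Doses were one drug alone or a fixed anchor-drug dose plus five library-drug doses (not always all listed) in √10 steps, and values are duplicate-plate medians.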

Compound in the assay “TPCA-1 + Decitabine”: C1=CC(=CC=C1C2=CC(=C(S2)NC(=O)N)C(=O)N)F [TPCA-1] + Nc1ncn([C@H]2C[C@H](O)[C@@H](CO)O2)c(=O)n1 [Decitabine] (partner 2 µM)
An outline of the steps: as §1

Compound in assay [2]: C1/C(=C\C2=CC=CS2)/C(=O)/C(=C/C3=CC=CS3)/C1 + CS(=O)(=O)N1CCN(Cc2cc3nc(-c4cccc5[nH]ncc45)nc(N4CCOCC4)c3s2)CC1 [Pictilisib] (partner 1 µM)
The method in brief: as §1

Compound in assay [3]: C[C@]12O[C@H](C[C@]1(O)CO)n1c3ccccc3c3c4c(c5c6ccccc6n2c5c31)CNC4=O [Lestaurtinib] + CS(=O)(=O)N1CCN(Cc2cc3nc(-c4cccc5[nH]ncc45)nc(N4CCOCC4)c3s2)CC1 [Pictilisib] (partner 1 µM)
An outline of the steps:
as §1

As for UMC-11, the relative viability in assay [1] (first compound 0.005 µM) is 1.08; in assay [1] (first compound 0.01581 µM), 1.06; in assay [1] (first compound 0.05 µM), 0.575; in assay [1] (first compound 0.1581 µM) it was 0.339; in assay [1] (first compound 0.5 µM) it was 0.175; with TPCA-1 + Decitabine (first compound 0.04 µM) it was 0.584. For the same cell line, the relative viability in the assay with TPCA-1 + Decitabine (first compound 0.1265 µM) was 0.501; with TPCA-1 + Decitabine (first compound 0.4 µM) it was 0.792; in the assay with TPCA-1 + Decitabine (first compound 1.265 µM), 0.613; in the assay with TPCA-1 + Decitabine (first compound 4 µM) it was 0.439; in assay [2] (first compound 0.2 µM), 0.829; in assay [2] (first compound 0.6325 µM), 0.962. Besides, the relative viability came to 0.934 in assay [2] (first compound 2 µM); 0.758 in assay [2] (first compound 20 µM); 0.83 in assay [3] (first compound 0.005 µM); 0.767 in assay [3] (first compound 0.01581 µM); 0.415 in assay [3] (first compound 0.05 µM); 0.366 in assay [3] (first compound 0.1581 µM). Further, the relative viability in assay [3] (first compound 0.5 µM) worked out at 0.145.
